In patent US20160367497A1, “METHODS AND COMPOSITIONS FOR TREATING NEUROPATHIES” (Washington University, priority 2007, published 2016):

Columns and labels:
[1] = tested on: optic nerve (retinal ganglion cell axons); experiment: optic nerve transection after intravitreal injection, neurofilament Western blot; assay type: in vivo, rat; details: 5 μl of 100 mM intravitreal, 24 hours before transection; 4 days after transection
Procedure: FIG. 9 illustrates optic nerve transection after intravitreal injection of NAD biosynthetic substrates NAD, NMN, NmR, or Nam was injected into intravitreal compartment of left rat eye and allowed to incorporate retinal ganglion cells for 24 hours after which, left optic nerve was transected by eye enucleation and right and left optic nerves were collected at 4 days after transection and analyzed by Western blotting in which optic nerves transected from […] without any treatment prior to axotomy were used for negative control; showing in the figure, the quantitative analysis data of percentage of remaining neurofilament immunoreactivity from transected optic nerve relative to non-transected±S.D.
Administration of NAD biosynthetic substrates and optic Nerve transection. Nam, NMN, NmR, or NAD was dissolved in PBS at the concentration of 100 mM or 1 M. Each of 5 μl solution was injected into left intravitreal component under the anesthesia at a rate of […]. The left optic nerve was transected at 24 hours after intravitreal injection and optic nerve was recovered at indicated time. Optic nerve tissue was homogenized in 100 μl of a buffer containing 100 mM tris-HCl (pH 6.8), 1% SDS, and 1 mM DTT. Fifty μg of protein for each sample was analyzed by the Western blotting using anti-neurofilament antibody 2H3 (Developmental Studies Hybridoma Center) and peroxidase-conjugated secondary antibody (Jackson ImmunoResearch). The degeneration rate was calculated from the ratio of the neurofilament immunoreactivity of transected vs. contralateral nerves.
Transection of optic nerve is an in vivo model which can be used to investigate mechanisms leading to Wallerian degeneration and following retinal ganglion cell (RGC) death observed in human diseases such as glaucoma. In the C57BL/Wlds mouse strain, optic nerve degeneration during Wallerian degeneration after axotomy is dramatically slowed. In addition, intravitreal injection is used for screening of compounds that protect RGC axon from degeneration in vivo and thus we can asses the axon protective effect of each NAD biosynthetic substrates in vive by intraocular injection of compounds including NAD, NMN, NmR, and Nam. From in vitro Wallerian degeneration assay, 1 mM of NAD, NMN, and NmR in the culture media is enough to protect axon from degeneration. We initially injected 5 μl of 100 mM or 1 M NAD solution into left intravitreal compartment. After 24 hours incubation, left optic nerve was transected and control (right) and axotomized (left) optic nerve were collected at 3, 4, and 5 days after transection. Neurofilament immunoreactivity from the axotomized optic nerve was measured and normalized against the value obtained from the right side of the optic nerve.

neuro2A cells = experiment: survival of Neuro2A cells in nutrient-deprived conditions; assay type: cell-based; details: regardless of the FCS concentration (10% or 0.2%)
Procedure: When Neuro2A cells are grown in culture in presence of 10% FCS, cells proliferate and ultimately die if cells are not passaged. If grown in the presence of 0.2% FCS, neuro2A cells differentiate and project neurites but ultimately die within one week.

| SMILES | neurofilament immunoreactivity of axotomized optic nerve, of non-axotomized optic nerve [1] | cell survival (neuro2A cells) |
| --- | --- | --- |
| NC(=O)c1cccnc1 [Nam, nicotinamide] | did not show any difference from the control animals |  |
| Oc1ccc(C=Cc2cc(O)cc(O)c2)cc1 [resveratrol] |  | resistant to death for a prolonged period of time |
